Test results as given in US8841233B2, “Herbicidal compositions comprising 4-amino-3-chloro-5-fluoro-6-(4-chloro-2-fluoro-3-methoxyphenyl) pyridine-2-carboxylic acid or a derivative thereof and 4-hydroxyphenyl-pyruvate dioxygenase (HPPD) inhibitors” (Dow Agrosciences LLC, priority 2012, dated 2014).
Values joined by “and” are separate entries in the source; they are usually repeats but may differ in a detail not shown here. Equal entries are not always repeated.

Legend:
SCPMA = assay: In-water applied weed control, transplanted paddy rice, greenhouse (Example II); format: in vivo
Description: (§1) Evaluation of in-Water Applied Herbicidal Mixtures for Weed Control in Transplanted Paddy Rice
(§2) Weed seeds or nutlets of the desired test plant species were planted in puddled soil (mud) prepared by mixing a shredded, non-sterilized mineral soil (50.5 percent silt, 25.5 percent clay, and 24 percent sand, with a pH of about 7.6 and an organic matter content of about 2.9 percent) and water at a 1:1 volumetric ratio. The prepared mud was dispensed in 365 mL aliquots into 16-ounce (oz.) non-perforated plastic pots with a surface area of 86.59 square centimeters (cm^2) leaving a headspace of 3 centimeters (cm) in each pot. Mud was allowed to dry overnight prior to planting or transplanting. Rice seeds were planted in Sun Gro MetroMix® 306 planting mixture, which typically has a pH of 6.0 to 6.8 and an organic matter content of about 30 percent, in plastic plug trays. Seedlings at the second or third leaf stage of growth were transplanted into 840 mL of mud contained in 32-oz. non-perforated plastic pots with a surface area of 86.59 cm^2 4 days prior to herbicide application. The paddy was created by filling the headspace of the pots with 2.5 to 3 cm of water. When required to ensure good germination and healthy plants, a fungicide treatment and/or other chemical or physical treatment was applied. The plants were grown for 4-22 days in a greenhouse with an approximate 14 h photoperiod which was maintained at about 29′C during the day and 26° C. during the night. Nutrients were added as Osmocote® (19:6:12, N:P:K+ minor nutrients) at 2 g per 16-oz. pot and 4 g per 32-oz. pot. Water was added on a regular basis to maintain the paddy flood, and supplemental lighting was provided with overhead metal halide 1000-Watt lamps as necessary. The plants were employed for testing when they reached the first through fourth true leaf stage.
(§3) Treatments consisted of the acid or esters of 4-amino-3-chloro-5-fluoro-6-(4-chloro-2-fluoro-3-methoxy-phenyl)pyridine-2-carboxylic acid (compound A) each formulated as an SC (suspension concentrate) and various herbicidal components alone and in combination. Forms of compound A were applied on an acid equivalent basis.
(§4) Other herbicidal components were applied on an active ingredient basis and included 4-hydroxyphenyl pyruvate dioxygenase (HPPD)-inhibiting herbicides mesotrione formulated as Callisto®, sulcotrione formulated as Mikado®, pyrazolynate formulated as Sunbird® 10% GR, and benzobicyclon formulated as Benzobicyclon 3.5% or technical material.
(§5) Treatment requirements for each compound or herbicidal component were calculated based upon the rates being tested, the concentration of active ingredient or acid equivalent in the formulation, an application volume of 2 mL per component per pot, and an application area of 86.59 cm^2 per pot.
(§6) For formulated compounds, a measured amount was placed in an individual 100 or 200 mL glass vial and was dissolved in a volume of 1.25% (v/v) Agri-Dex® crop oil concentrate to obtain application solutions.
(§7) For technical grade compounds, a weighed amount was placed in an individual 100 to 200 mL glass vial and was dissolved in a volume of acetone to obtain concentrated stock solutions. […] The concentrated stock solutions obtained were diluted with an equivalent volume of an aqueous mixture containing 2.5% (v/v) crop oil concentrate so that the final application solutions contained 1.25% (v/v) crop oil concentrate.
(§8) Applications were made by injecting with a pipetter appropriate amounts of the application solutions, individually and sequentially, into the aqueous layer of the paddy. Control plants were treated in the same manner with the solvent blank. Applications were made so that all treated plant material received the same concentrations of acetone and crop oil concentrate.
(§9) The treated plants and control plants were placed in a greenhouse as described above and water was added as needed to maintain a paddy flood. […]

ECHCG = assay: as above; format: in vivo, Echinochloa crusgalli (L.) Beauv.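 On Visual Weed Control (%) - 20 DAA ECHCG Obs: visual score 0 no injury to 100 complete kill versus untreated plants.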
Description: as §1, §2, §3, §4, §5, §6, §7, §8, §9

SMILES | Visual Weed Control (%) - 21 DAA SCPMA Obs (SCPMA; 4.38 gae/ha) | Visual Weed Control (%) - 21 DAA SCPMA Obs (SCPMA; 8 gae/ha) | Visual Weed Control (%) - 21 DAA SCPMA Obs (SCPMA; 8.75 gae/ha) | Visual Weed Control (%) - 21 DAA SCPMA Obs (SCPMA; 16 gae/ha) | Visual Weed Control (%) - 21 DAA SCPMA Obs (SCPMA; 17.5 gae/ha) | Visual Weed Control (%) - 21 DAA SCPMA Obs (SCPMA; 32 gae/ha) | Visual Weed Control (%) - 21 DAA SCPMA Obs (SCPMA; 48 gae/ha) | Visual Weed Control (%) - 21 DAA SCPMA Obs (SCPMA; 96 gae/ha) | Visual Weed Control (%) - 22 DAA ECHCG Obs (ECHCG; 8.75 gae/ha) | Visual Weed Control (%) - 22 DAA ECHCG Obs (ECHCG; 17.5 gae/ha) | Visual Weed Control (%) - 21 DAA SCPMA Obs (SCPMA; 35 gae/ha) | Visual Weed Control (%) - 21 DAA ECHCG Obs (ECHCG; 8.75 gae/ha) | Visual Weed Control (%) - 20 DAA ECHCG Obs (ECHCG; 17.5 gae/ha) | Visual Weed Control (%) - 21 DAA ECHCG Obs (ECHCG; 17.5 gae/ha) | Visual Weed Control (%) - 20 DAA ECHCG Obs (ECHCG; 35 gae/ha)
COc1c(Cl)ccc(-c2nc(C(=O)OCc3ccccc3)c(Cl)c(N)c2F)c1F [Compound A Benzyl Ester, benzyl ester of 4-amino-3-chloro-5-fluoro-6-(4-chloro-2-fluoro-3-methoxy-phenyl)pyridine-2-carboxylic acid] | 0% | 0% | 0% | 0% | 0% | 0% | 0% | 0% | 45% | 90% |  |  |  |  | 
COc1c(Cl)ccc(-c2nc(C(=O)O)c(Cl)c(N)c2F)c1F [Compound A Acid, 4-amino-3-chloro-6-(4-chloro-2-fluoro-3-methoxyphenyl)-5-fluoropyridine-2-carboxylic acid] |  |  | 0% |  | 0% |  |  |  |  |  | 0% | 20% | 35% and 30% | 30% | 55%
